Data taken from patent publication US20140088144A1, “INHIBITING MICROBIAL INFECTIONS” (THE UNIVERSITY OF KANSAS, priority 2012, published 2014).

Tests used:
RhaS [1] = target: T1, RhaS (Escherichia coli, UniProt P09377); experiment: In vivo dose-response, RhaS-activated rhaB-lacZ reporter fusion (β-galactosidase); assay type: cell-based, E. coli; conditions: full-length RhaS, rhaB-lacZ
Description: For dose-response studies, a rhaB-lacZ reporter strain was designed that allowed IPTG induction of RhaS or RhaS(163-278) expression from pHG165 (and thus rhaB-lacZ expression). The strain was constructed by introducing malP::lacIq into SME3000 via phage P1vir-mediated generalized transduction. First, SME3000 was transduced with Δcrp-3 zhc-511::Tn10 from SME1403, selecting for tetracycline resistance and screening for sorbitol deficiency (indicating Δcrp) using MacConkey sorbitol. SME3000 Acrp-3 zhc-511::Tn10 was transduced with crp^+ malP::lacI^q from SG22166, selecting for growth on minimal sorbitol and screening for maltose deficiency (indicating malP::lacI^q) using MacConkey maltose. Finally, SME3000 malP::lacI^q zhc-511::Tn10 was transduced with recA::cat from SME1048 by selecting for chloramphenicol resistance, to make strain SME3632.
(§1) The top hit identified in the screen was 1-ethyl-4-(nitromethyl)-3-quinolin-2-yl-4H-quinoline, Compound 2. The closely related compound, Compound 1,1-butyl-4-(nitromethyl)-3-quinolin-2-yl-4H-quinoline, was obtained from eMolecules, Inc. (Solana Beach, Calif.; catalog #3761-0013) or Princeton BioMolecular Research (Princeton, N.J.; catalog #OSSL—051168), with the Princeton named used here. […] Lysis/ONPG buffer (50 μL, as in Primary Screen) was added to each well and the plate was immediately placed into a PowerWave XS plate reader (BioTek Instruments, Inc., Winooski, Vt.), set to read the OD420 of each well every 15 min for 4 hr. […] Due to differences in kinetics of lacZ reporter expression, the rhaB-lacZ strains were analyzed at 4 hours and the hts-lacZ strain was analyzed at 1 hr. Percent activity was calculated for each condition as described above, using the single time point with appropriate OD420 levels for each strain. […] IC50 and maximal inhibition values were calculated using the XLfit add-in for Microsoft Excel (ID Business Solutions, Guildford, UK), and graphs were drawn using Prism (GraphPad, La Jolla, Calif.).

[2] = test system: LacI-repressed hts-lacZ fusion; experiment: LacI-repressed hts-lacZ control reporter fusion (β-galactosidase); assay type: cell-based, E. coli; conditions: hts-lacZ control (SME3359)
Description: The control strain for the secondary high-throughput screen and subsequent experiments was SME3359, and carries the LacI-repressed fusion and LacI-expressing pHG165lacI. The fusion consists of lacZ under the control of an artificial promoter (Phts) with an induced expression level similar to that of the induced rhaBAD operon. Phts is regulated by Lad and induced with IPTG. The Phts core promoter elements include a near-consensus −35 sequence and a −10 sequence followed by a lacO1 operator sequence that overlaps the transcription start site with the same spacing as lacO1 at lacZYA. To construct the upstream half of Phts, oligo 2829 was annealed to oligo 2788 and the primers were extended using the Expand High Fidelity PCR System (Roche Applied Science, Indianapolis, Ind.). The downstream half of the Phts promoter was constructed by similarly annealing and extending oligos 2789 and 2790.
as §1, with “2.” for “2. The closely related compound, Compound 1,1-butyl-4-(nitromethyl)-3-quinolin-2-yl-4H-quinoline, was obtained from eMolecules, Inc. (Solana Beach, Calif.; catalog #3761-0013) or Princeton BioMolecular Research (Princeton, N.J.; catalog #OSSL—051168), with the Princeton named used here.”
In vivo dose-response assays were performed using a procedure described previously. […] Bacterial cultures were mixed with varying concentrations of SE-1 (2.2% DMSO, final), induced with 6.5 mM IPTG for 3 h at 37° C., lysed and β-galactosidase activity was measured. […] IC50 values were calculated and graphs were drawn using Prism (GraphPad, La Jolla, Calif.).

RhaS [3] = target: T1, RhaS; experiment: % Inhibition at 82.5 μM, RhaS; assay type: cell-based, E. coli
VirF = VirF (Shigella flexneri, UniProt P0A2T1); experiment: % Inhibition at 82.5 μM, VirF; assay type: cell-based; conditions: for inhibition at 82.5 µM: read-out: % Inhibition at 82.5 μM VirF, 82.5 μM
VirF, sequence (P0A2T1 whole entry): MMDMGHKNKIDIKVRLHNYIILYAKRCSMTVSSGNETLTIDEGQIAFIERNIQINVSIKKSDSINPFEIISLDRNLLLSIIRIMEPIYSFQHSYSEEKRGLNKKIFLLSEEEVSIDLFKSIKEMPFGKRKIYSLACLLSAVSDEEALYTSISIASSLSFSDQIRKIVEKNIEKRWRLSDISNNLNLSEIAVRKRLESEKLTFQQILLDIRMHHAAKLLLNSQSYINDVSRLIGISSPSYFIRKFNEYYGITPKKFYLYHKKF

Rns = Rns (Escherichia coli, UniProt P16114); experiment: % Inhibition at 82.5 μM, Rns; assay type: cell-based, Enterotoxigenic E. coli; conditions: for inhibition at 82.5 µM: read-out: % Inhibition at 82.5 μM Rns
Rns, sequence (P16114 whole entry): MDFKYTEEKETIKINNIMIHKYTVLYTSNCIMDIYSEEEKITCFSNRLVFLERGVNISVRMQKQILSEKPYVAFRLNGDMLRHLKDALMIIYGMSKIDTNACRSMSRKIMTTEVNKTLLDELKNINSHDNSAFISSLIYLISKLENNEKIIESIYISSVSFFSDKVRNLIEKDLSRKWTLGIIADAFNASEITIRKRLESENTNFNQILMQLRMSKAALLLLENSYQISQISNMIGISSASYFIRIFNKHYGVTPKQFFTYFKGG

T1 sequence (P09377 whole entry, the tested form may be a part): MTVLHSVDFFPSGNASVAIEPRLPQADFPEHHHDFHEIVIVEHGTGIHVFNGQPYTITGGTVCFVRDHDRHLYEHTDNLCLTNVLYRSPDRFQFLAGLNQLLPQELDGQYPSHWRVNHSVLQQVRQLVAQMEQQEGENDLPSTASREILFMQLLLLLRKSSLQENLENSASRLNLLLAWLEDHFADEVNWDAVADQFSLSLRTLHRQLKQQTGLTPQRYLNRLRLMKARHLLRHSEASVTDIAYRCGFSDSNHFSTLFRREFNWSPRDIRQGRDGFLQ

With CCN1C=C(c2ccc3ccccc3n2)C(C[N+](=O)[O-])c2ccccc21 (centres unmarked) [Compound 2, 1-ethyl-4-(nitromethyl)-3-quinolin-2-yl-4H-quinoline] as the molecule, how does the “inhibition of the RhaS-activated fusion” value (RhaS [1]) read?
Its value is “particularly robust, dose-dependent inhibition”.

And the “inhibition of the LacI-repressed fusion” value [2]?
Its value is “substantially less inhibition”.

What about the inhibition at 82.5 µM (RhaS [3]) of the same molecule?
Its inhibition at 82.5 µM is 90%.

What about the inhibition at 82.5 µM (VirF) of the same molecule?
Its inhibition at 82.5 µM is 100%.

And the inhibition at 82.5 µM (Rns)?
The inhibition at 82.5 µM was 60%.

How did the inhibition at 82.5 µM (RhaS [3]) turn out when CCCCN1C=C(c2ccc3ccccc3n2)C(C#N)c2ccccc21 (centres unmarked) [Compound A01] was run?
Its inhibition at 82.5 µM is 30%.

What about the inhibition at 82.5 µM (VirF) of the same molecule?
The inhibition at 82.5 µM was 20%.

What about the inhibition at 82.5 µM (Rns) of the same molecule?
Its inhibition at 82.5 µM is 20%.

Which results are given for CCN1C=C(c2ccc3ccccc3n2)C(C#N)c2ccccc21 (centres unmarked) [Compound A1]?
inhibition at 82.5 µM (RhaS [3]): 30%; inhibition at 82.5 µM (VirF): 20%; inhibition at 82.5 µM (Rns): 30%

How did the inhibition at 82.5 µM (RhaS [3]) turn out when CCOC(=O)C(C(=O)OCC)C1C(c2ccc3ccccc3n2)=CN(C)c2ccccc21 (centres unmarked) [Compound A2] was run?
The inhibition at 82.5 µM was 80%.

What about the inhibition at 82.5 µM (VirF) of the same molecule?
The inhibition at 82.5 µM was 100%.

And the inhibition at 82.5 µM (Rns)?
Its inhibition at 82.5 µM is 80%.

Which results are given for CCCCN1C=C(c2cccc(C)n2)C(C#N)c2ccccc21 (centres unmarked) [Compound A03]?
inhibition at 82.5 µM (RhaS [3]): 40%; inhibition at 82.5 µM (VirF): 0%; inhibition at 82.5 µM (Rns): 10%

With CCOC(=O)CN1C=C(c2ccc3ccccc3n2)C(C[N+](=O)[O-])c2ccccc21 (centres unmarked) [Compound A3] as the molecule, how does the inhibition at 82.5 µM (RhaS [3]) read?
Its inhibition at 82.5 µM is 0%.

What about the inhibition at 82.5 µM (VirF) of the same molecule?
Its inhibition at 82.5 µM is 10%.

What about the inhibition at 82.5 µM (Rns) of the same molecule?
The inhibition at 82.5 µM was 30%.

Which results are given for CCCCN1C=C(c2ccc3ccccc3n2)C(C[N+](=O)[O-])c2ccccc21 (centres unmarked) [Compound A07]?
inhibition at 82.5 µM (RhaS [3]): 90%; inhibition at 82.5 µM (VirF): 90%; inhibition at 82.5 µM (Rns): 90%

O=[N+]([O-])CC1C(c2ccc3ccccc3n2)=CN(Cc2ccc(Cl)cc2)c2ccccc21 (centres unmarked) [Compound A08] was tested. Which inhibition at 82.5 µM (RhaS [3]) did it give?
The inhibition at 82.5 µM was 40%.

And the inhibition at 82.5 µM (VirF)?
The inhibition at 82.5 µM was 40%.

And the inhibition at 82.5 µM (Rns)?
The inhibition at 82.5 µM was 30%.

With CCCCN1C=C(c2cccc(C)n2)C(C[N+](=O)[O-])c2ccccc21 (centres unmarked) [Compound A09] as the molecule, how does the inhibition at 82.5 µM (RhaS [3]) read?
Its inhibition at 82.5 µM is 50%.

What about the inhibition at 82.5 µM (VirF) of the same molecule?
The inhibition at 82.5 µM was 10%.

What about the inhibition at 82.5 µM (Rns) of the same molecule?
Its inhibition at 82.5 µM is 0%.

What does the source list for Cc1cccc(C2=CN(Cc3ccc(Cl)cc3)c3ccccc3C2C[N+](=O)[O-])n1 (centres unmarked) [Compound A10]?
inhibition at 82.5 µM (RhaS [3]): 30%; inhibition at 82.5 µM (VirF): 10%; inhibition at 82.5 µM (Rns): 0%

With CCCCN1C=C(c2ccc3ccccc3n2)Cc2ccccc21 [Compound A21] as the molecule, how does the inhibition at 82.5 µM (RhaS [3]) read?
Its inhibition at 82.5 µM is 60%.

What about the inhibition at 82.5 µM (VirF) of the same molecule?
The inhibition at 82.5 µM was 70%.

What about the inhibition at 82.5 µM (Rns) of the same molecule?
The inhibition at 82.5 µM was 80%.

CCCCN1C=C(c2ccc3ccccc3n2)C(C)c2ccccc21 (centres unmarked) [Compound A23] was tested. Which inhibition at 82.5 µM (RhaS [3]) did it give?
The inhibition at 82.5 µM was 0%.

What about the inhibition at 82.5 µM (VirF) of the same molecule?
Its inhibition at 82.5 µM is 30%.

What about the inhibition at 82.5 µM (Rns) of the same molecule?
The inhibition at 82.5 µM was 10%.

Which inhibition at 82.5 µM (RhaS [3]) does the source give for C[n+]1cc(-c2ccc3ccccc3n2)cc2ccccc21 [Compound A24] here?
Its inhibition at 82.5 µM is 94%.

What about the inhibition at 82.5 µM (VirF) of the same molecule?
Its inhibition at 82.5 µM is 100%.

What about the inhibition at 82.5 µM (Rns) of the same molecule?
The inhibition at 82.5 µM was 90%.

What does the source list for C=CCCC[n+]1cc(-c2ccc3ccccc3n2)cc2ccccc21 [Compound A25]?
inhibition at 82.5 µM (RhaS [3]): 80%; inhibition at 82.5 µM (VirF): 100%; inhibition at 82.5 µM (Rns): 100%

CN1C=C(c2ccc3ccccc3n2)C(C#N)c2ccccc21 (centres unmarked) [Compound C4] was tested. Which inhibition at 82.5 µM (RhaS [3]) did it give?
Its inhibition at 82.5 µM is 70%.

What about the inhibition at 82.5 µM (VirF) of the same molecule?
The inhibition at 82.5 µM was 90%.

What about the inhibition at 82.5 µM (Rns) of the same molecule?
Its inhibition at 82.5 µM is 80%.

Which results are given for CN1C=C(c2ccc3ccccc3n2)C(c2c(-c3ccccc3)[nH]c3ccccc23)c2ccccc21 (centres unmarked) [Compound D2]?
inhibition at 82.5 µM (RhaS [3]): 10%; inhibition at 82.5 µM (VirF): 40%; inhibition at 82.5 µM (Rns): 10%

Which results are given for O=[N+]([O-])CC1C(c2ccc3ccccc3n2)=CN(Cc2ccccc2)c2ccccc21 (centres unmarked) [Compound D3]?
inhibition at 82.5 µM (RhaS [3]): 60%; inhibition at 82.5 µM (VirF): 70%; inhibition at 82.5 µM (Rns): 60%

What does the source list for CN1C=C(c2ccc3ccccc3n2)C(C[N+](=O)[O-])c2ccccc21 (centres unmarked) [Compound E1]?
inhibition at 82.5 µM (RhaS [3]): 90%; inhibition at 82.5 µM (VirF): 100%; inhibition at 82.5 µM (Rns): 80%

What does the source list for Clc1ccc(C[n+]2cc(-c3ccc4ccccc4n3)cc3ccccc32)cc1.[Br-] [Compound I01]?
% Inhibition at 82.5 μM RhaS (RhaS [3]): 50%; % Inhibition at 82.5 μM VirF (VirF; 82.5 μM): 50%; % Inhibition at 82.5 μM Rns (Rns; 82.5 μM): 50%

Which results are given for CCCC[n+]1cc(-c2ccc3ccccc3n2)cc2ccccc21 [Compound I02]?
inhibition at 82.5 µM (RhaS [3]): 90%; inhibition at 82.5 µM (VirF): 90%; inhibition at 82.5 µM (Rns): 90%

Which results are given for Clc1ccc(C[n+]2cc(-c3ccc4ccccc4n3)cc3ccccc32)cc1 [Compound I03]?
inhibition at 82.5 µM (RhaS [3]): 60%; inhibition at 82.5 µM (VirF): 60%; inhibition at 82.5 µM (Rns): 50%

Which results are given for CC(C)[n+]1cc(-c2ccc3ccccc3n2)cc2ccccc21 [Compound I10]?
inhibition at 82.5 µM (RhaS [3]): 80%; inhibition at 82.5 µM (VirF): 100%; inhibition at 82.5 µM (Rns): 90%

How did the inhibition at 82.5 µM (RhaS [3]) turn out when CCC[n+]1cc(-c2ccc3ccccc3n2)cc2ccccc21 [Compound I11] was run?
Its inhibition at 82.5 µM is 80%.

What about the inhibition at 82.5 µM (VirF) of the same molecule?
Its inhibition at 82.5 µM is 100%.

And the inhibition at 82.5 µM (Rns)?
The inhibition at 82.5 µM was 90%.

Which inhibition at 82.5 µM (RhaS [3]) does the source give for CCCCCC[n+]1cc(-c2ccc3ccccc3n2)cc2ccccc21 [Compound I12] here?
Its inhibition at 82.5 µM is 90%.

What about the inhibition at 82.5 µM (VirF) of the same molecule?
The inhibition at 82.5 µM was 100%.

What about the inhibition at 82.5 µM (Rns) of the same molecule?
Its inhibition at 82.5 µM is 100%.

With CCCCCCCCC[n+]1cc(-c2ccc3ccccc3n2)cc2ccccc21 [Compound I13] as the molecule, how does the inhibition at 82.5 µM (RhaS [3]) read?
Its inhibition at 82.5 µM is 100%.

And the inhibition at 82.5 µM (VirF)?
Its inhibition at 82.5 µM is 100%.

And the inhibition at 82.5 µM (Rns)?
The inhibition at 82.5 µM was 100%.

Which results are given for CCCC[n+]1cc(-c2ccc3ccccc3c2)cc2ccccc21 [Compound I14]?
inhibition at 82.5 µM (RhaS [3]): 90%; inhibition at 82.5 µM (VirF): 100%; inhibition at 82.5 µM (Rns): 100%

Which results are given for C[n+]1sc(Nc2ccccc2)nc1-c1ccccc1 [JS01]?
inhibition at 82.5 µM (RhaS [3]): 100%; inhibition at 82.5 µM (VirF): 100%; inhibition at 82.5 µM (Rns): 100%

Which results are given for C[n+]1ccccc1/C=C/c1ccc(Br)cc1 [JS03]?
inhibition at 82.5 µM (RhaS [3]): 20%; inhibition at 82.5 µM (VirF): 50%; inhibition at 82.5 µM (Rns): 10%
